Reference: patent US20240148821A1, “PHARMACEUTICAL USE OF CYCLIC PEPTIDE COMPOUND” (CHUGAI SEIYAKU KABUSHIKI KAISHA, priority 2021, published 2024)
Numbered stars: 1 amine (or outer) side, 2 acyl side, 3 side chain; on linkers, the order of the positions; unused ones are H or OH. Bridge positions count the residues as written; N and C are the ends. Square brackets hold non-standard residues; d marks the D form. Peptide text beside a SMILES is read from it. * marks the point of attachment. hPhe(3-Cl-4-CF3) = N[C@@H](CCc1ccc(C(F)(F)F)c(Cl)c1)C(=O)O; hPhe(3-F,4-CF3) = N[C@@H](CCc1ccc(C(F)(F)F)c(F)c1)C(=O)O; hPhe(4-CF3) = N[C@@H](CCc1ccc(C(F)(F)F)cc1)C(=O)O; X24 = COc1cncc(C[C@@H](C(=O)[*:2])N(C)[*:1])c1; NMePhe(4-Cl) = CN[C@@H](Cc1ccc(Cl)cc1)C(=O)O; NMedβ3hAla = C[C@H](CC(=O)[*:2])N(C)[*:1]; NMeGly(cBu) = CN[C@H](C(=O)O)C1CCC1; NMeCha = CN[C@@H](CC1CCCCC1)C(=O)O; cisHyp = O=C(O)[C@@H]1C[C@H](O)CN1; NMeChg = CN[C@H](C(=O)O)C1CCCCC1; NMeF = CN[C@@H](Cc1ccccc1)C(=O)O; NMeI = CC[C@H](C)[C@H](NC)C(=O)O; NMeD = CN[C@@H](CC(=O)O)C(=O)O; NMeL = CN[C@@H](CC(C)C)C(=O)O; NMeNle = CCCC[C@H](NC)C(=O)O; NMeV = CN[C@H](C(=O)O)C(C)C; NPhGly = O=C(O)CNc1ccccc1; NMeA = CN[C@@H](C)C(=O)O; NMeAib = CNC(C)(C)C(=O)O; Nle = CCCC[C@H](N)C(=O)O; Piperidide = C1CCN(*)CC1; Ac5c = NC1(C(=O)O)CCCC1; Aze = O=C(O)[C@@H]1CCN1; X9 = c1cncc(C*)c1; Sar = CNCC(=O)O

The compounds below were run against protein-protein interaction between Kras and SOS1 (biotin-tagged human Kras loaded with GDP, His-tagged human SOS1) (Homo sapiens (Human), UniProt P01116, G12D) (assay: Protein-protein interaction inhibition between Kras and SOS1 (KrasG12D-SOS PPI) using AlphaScreen). Conditions: AlphaScreen; biotin-tagged human Kras loaded with GDP, His-tagged human SOS1; read-out: KRAS G12D-SOS PPI IC50.
Type: biochemical
Work on `CC[C@H](C)[C@@H]1NC(=O)[C@H](C)N(C)C(=O)C[C@@H](C)N(C)C(=O)[C@H](C2CCC2)N(C)C(=O)C(C)(C)N(C)C(=O)CN(c2ccccc2)C(=O)[C@H](CCc2ccc(C(F)(F)F)c(Cl)c2)NC(=O)CN(C)C(=O)[C@H](C2CCC2)N(C)C(=O)[C@@H]2CCN2C(=O)[C@H](C)N(C)C1=O` [Compound 2148] (cyclo([Aze][NMeGly(cBu)][Sar][hPhe(3-Cl-4-CF3)][NPhGly][NMeAib][NMeGly(cBu)][NMedβ3hAla][NMeA]I[NMeA])) yielded an IC50 of 63 nM. With `CCCC[C@@H]1NC(=O)[C@H](CCc2ccc(C(F)(F)F)c(Cl)c2)NC(=O)CN(C)C(=O)[C@H](Cc2ccc(Cl)cc2)N(C)C(=O)CN(C)C(=O)CN(C)C(=O)[C@H]([C@@H](C)CC)NC(=O)[C@H](CC(C)C)N(C)C(=O)C[C@@H](C)N(C)C(=O)[C@H](CC(C)C)NC(=O)[C@H](Cc2ccccc2)N(C)C1=O` [Compound 566] (cyclo(I[Sar][Sar][NMePhe(4-Cl)][Sar][hPhe(3-Cl-4-CF3)][Nle][NMeF]L[NMedβ3hAla][NMeL])) the IC50 was 160 nM. Work on `CC[C@H](C)[C@@H]1NC(=O)[C@H](CC(C)C)N(C)C(=O)C[C@@H](C(=O)N2CCCCC2)N(C)C(=O)[C@H]([C@@H](C)CC)N(C)C(=O)C2(CCCC2)NC(=O)[C@@H]2CCCN2C(=O)[C@H](CCc2ccc(C(F)(F)F)c(Cl)c2)NC(=O)CN(C)C(=O)[C@H](CC2CCCCC2)N(C)C(=O)[C@@H]2CCN2C(=O)[C@H](C)N(C)C1=O` [Compound 1722] ([NMeL]I[NMeA][Aze][NMeCha][Sar][hPhe(3-Cl-4-CF3)]P[Ac5c][NMeI][NMeD]-Piperidide; lactam N-11) yielded an IC50 of 2.8 nM. With `CC[C@H](C)[C@@H]1NC(=O)[C@H](C)NC(=O)C[C@@H](C)N(C)C(=O)[C@H](CC(C)C)N(C)C(=O)[C@H](Cc2ccccc2)N(C)C(=O)[C@H](CC(C)C)NC(=O)[C@H](CCc2ccc(C(F)(F)F)cc2)NC(=O)CN(C)C(=O)[C@H](Cc2ccc(Cl)cc2)N(C)C(=O)CN(C)C(=O)CN(C)C1=O` [Compound 406] (cyclo(AI[Sar][Sar][NMePhe(4-Cl)][Sar][hPhe(4-CF3)]L[NMeF][NMeL][NMedβ3hAla])) the IC50 was 250 nM. Compound `CC[C@H](C)[C@@H]1NC(=O)[C@H](CC(C)C)N(C)C(=O)C[C@@H](C)N(C)C(=O)[C@H]([C@@H](C)CC)N(C)C(=O)C2(CCCC2)NC(=O)[C@@H]2CCCN2C(=O)[C@H](CCc2ccc(C(F)(F)F)c(F)c2)NC(=O)CN(C)C(=O)[C@H](CC2CCCCC2)N(C)C(=O)[C@@H]2CCN2C(=O)[C@H](C)N(C)C1=O` [Compound 859] (cyclo([Ac5c][NMeI][NMedβ3hAla][NMeL]I[NMeA][Aze][NMeCha][Sar][hPhe(3-F,4-CF3)]P)) has an IC50 of 64 nM. With `CC[C@H](C)[C@@H]1NC(=O)[C@H](CC(C)C)N(C)C(=O)C[C@@H](C(=O)N2CCCCC2)N(C)C(=O)[C@H](C2CCCCC2)N(C)C(=O)C2(CCCC2)NC(=O)[C@@H]2C[C@H](OCc3cccnc3)CN2C(=O)[C@H](CCc2ccc(C(F)(F)F)c(Cl)c2)NC(=O)CN(C)C(=O)[C@H](CC2CCCCC2)N(C)C(=O)CN(C)C(=O)CN(C)C1=O` [Compound 2120] ([NMeL]I[Sar][Sar][NMeCha][Sar][hPhe(3-Cl-4-CF3)][cisHyp](X9)[Ac5c][NMeChg][NMeD]-Piperidide; lactam N-11) the IC50 was 1 nM. `CCCC[C@H]1C(=O)N[C@@H]([C@@H](C)CC)C(=O)N(C)[C@@H](C)C(=O)N2CC[C@H]2C(=O)N(C)[C@@H](CC2CCCCC2)C(=O)N(C)CC(=O)N[C@@H](CCc2ccc(C(F)(F)F)c(Cl)c2)C(=O)N2CCC[C@H]2C(=O)NC2(CCCC2)C(=O)N(C)[C@@H](C(C)C)C(=O)N(C)[C@H](C(=O)N2CCCCC2)CC(=O)N1C` [Compound 1616] ([NMeNle]I[NMeA][Aze][NMeCha][Sar][hPhe(3-Cl-4-CF3)]P[Ac5c][NMeV][NMeD]-Piperidide; lactam N-11) gave an IC50 of 12 nM.

Each compound was assayed on Human pancreatic cancer cell line AsPC-1 (G12D mutation Kras) (assay: AsPC-1 cell growth inhibition (AsPC-1 CGI)). Conditions: read-out: AsPC-1 cell growth inhibition, 50% growth inhibitory concentration (IC50 value); 96 hours, CellTiter-Glo, values classified in ranges.
Type: cell-based
Experimental: Test compounds were serially dilated with dimethyl sulfoxide, and 200 nL was then dispensed to a U-bottom 96-well plate using Labcyte Echo. […] The cell suspension was dispensed to a. plate containing a test compound at 100 μL per well and incubated at 37° C. in a 5% carbon dioxide gas incubator. 96 hours later, 80 μL of CellTiter-Glo (Promega) was added to each well and fluorescence was measured.
With `CC[C@H](C)[C@@H]1NC(=O)[C@H](CC(C)C)N(C)C(=O)C[C@@H](C(=O)N2CCCCC2)N(C)C(=O)[C@H](C2CCCCC2)N(C)C(=O)C2(CCCC2)NC(=O)[C@H](Cc2cncc(OC)c2)N(C)C(=O)[C@H](CCc2ccc(C(F)(F)F)c(Cl)c2)NC(=O)CN(C)C(=O)[C@H](CC2CCCCC2)N(C)C(=O)[C@@H]2CCN2C(=O)CN(C)C1=O` [Compound 770] ([NMeL]I[Sar][Aze][NMeCha][Sar][hPhe(3-Cl-4-CF3)][X24][Ac5c][NMeChg][NMeD]-Piperidide; lactam N-11) the IC50 was over 500 nM. `CC[C@H](C)[C@@H]1NC(=O)[C@H](C)N(C)C(=O)C[C@@H](C)N(C)C(=O)[C@H](C2CCCCC2)N(C)C(=O)C2(CCCC2)NC(=O)[C@@H]2CCCN2C(=O)[C@H](CCc2ccc(C(F)(F)F)c(Cl)c2)NC(=O)CN(C)C(=O)[C@H](CC2CCCCC2)N(C)C(=O)CN(C)C(=O)CN(C)C1=O` [Compound 1808] (cyclo([Ac5c][NMeChg][NMedβ3hAla][NMeA]I[Sar][Sar][NMeCha][Sar][hPhe(3-Cl-4-CF3)]P)) showed an IC50 of over 500 nM.
